# Reference: patent US10519145B2, “Pyrazole-oxazolidinone compound for anti-hepatitis B virus” (Shanghai Zhimeng Biopharma Co., Ltd., priority 2016, dated 2019)
# Test system: HBV (HepG2.2.15 cells)
# Test: Anti-HBV activity experiment in vitro (HepG2.2.15, HBV DNA in supernatant, qPCR)
# Assay type: cell-based
# Details: Hepatitis B virus, HBV DNA in supernatant by qPCR, eighth day
# Experimental: Compound Dilution: initial concentrations of all compounds used in the anti-HBV activity experiments in vitro were 1 μM, 3-fold diluted into 8 concentrations; initial concentrations of all compounds used in the cytotoxicity assay were 100 μM, 3-fold diluted into 8 concentrations; and the mother liquor of the compound was diluted with DMSO.
# Anti-HBV Activity Experiment In Vitro: HepG2.2.15 cells (4×10^4 cells/well) were seeded in 96-well plates and cultured overnight at 37° C. in 5% CO2. The next day, fresh cultures containing compounds in different concentrations were added into the culture wells. On the fifth day, the old culture medium in the culture wells was aspirated and removed. Fresh medium containing compounds in different concentrations was added. On the eighth day, supernatants in the culture wells were collected and used to extract HBV DNA in the supernatant. qPCR assay was used to detect HBV DNA content in the HepG2.2.15 supernatant.
# The data analysis and the percentage of inhibition calculation: the percentage of inhibition was calculated by using the following formula: Inhibition %=[(HBV amount in DMSO control−HBV amount in sample)/HBV amount in DMSO control]×100%.
row,SMILES,EC50 [nM]
1,"O=C1COC(c2cn(-c3ccc(Br)cc3)nc2-c2ccc(F)cc2)N1CCc1cc2[nH]c(=O)[nH]c2cc1F (racemic) [example 8 racemate, 2-(1-(4-bromophenyl)-3-(4-fluorophenyl)11/-pyrazol-4-yl)-3-(2-(6-fluoro-2-carbonyl-2,3-dihydro-1H-benzo[d]imidazol-5-yl)ethyl)oxazoline-4-one]",35.5
2,"O=C1COC(c2cn(-c3ccc(Br)cc3)nc2-c2ccoc2)N1CCc1ccc2[nH]c(=O)[nH]c2c1 (racemic) [example 21 racemate, 2-(1-(4-bromophenyl)-3-(furan-3-yl)-1H-pyrazol-4-yl)-3-(2-(2-oxo-2,3-dihydro-1H-benzo[d]imidazol-5-yl)ethyl)oxazolidin-4-one]",30.6
3,Nc1ccc(CCN2C(=O)COC2c2cn(-c3ccc(Br)cc3)nc2-c2ccc(F)cc2)cc1 (centres unmarked) [example 1 intermediate],11.8
4,"O=C1COC(c2cn(-c3ccc(Br)cc3)nc2-c2ccc(F)cc2)N1CCc1ccc2[nH]cnc2c1 (centres unmarked) [example 1, 3-(2-(1H-benzo[d]imidazol-5-yl)ethyl)-2-(1-(4-bromophenyl)-3-(4-fluorophenyl)-1 H-pyrazol-4-yl)oxazoline-4-one]",50.3
5,"O=C1COC(c2cn(-c3ccc(Br)cc3)nc2-c2ccc(F)cc2)N1CCc1ccc2[nH]nnc2c1 (centres unmarked) [example 2, 3-(2-(1H-benzo[d][1,2,3]triazol-5-yl)ethyl)-2-(1-(4-bromophenyl)-3-(4-fluoropheny 1)-1H-pyrazol-4-yl)oxazoline-4-one]",68.8
6,"O=C1CO[C@@H](c2cn(-c3ccc(Br)cc3)nc2-c2ccc(F)cc2)N1CCc1ccc2[nH]c(=O)[nH]c2c1 [example 3 S isomer, (S)-3-(2-(2-oxo-2,3-dihydro-1H-benzo[d]imidazol-5-yl)ethyl)-2-(1-(4-bromophenyl)-3-(4-fluorophenyl)-1H-pyrazol-4-yl)-oxazolidin-4-one]",> 1000
7,"N=c1[nH]c2ccc(CCN3C(=O)COC3c3cn(-c4ccc(Br)cc4)nc3-c3ccc(F)cc3)cc2[nH]1 (centres unmarked) [example 4, 3-(2-(2-amino-1H-benzo[d]imidazol-6-yl)ethyl)-2-(1-(4-bromophenyl)-3-(4-fluorophenyl)-1H-pyrazol-4-yl)oxazoline-4-one]",> 1000
8,"O=C1COC(c2cn(-c3ccc(Br)cc3)nc2-c2ccc(F)cc2)N1CCc1ccc2[nH]c(=S)[nH]c2c1 (centres unmarked) [example 5, 2-(1-(4-bromophenyl)-3-(4-fluorophenyl)-1H-pyrazol-4-yl)-3-(2-(2,3-dihydro-2-thio-1H-benzo[d]imidazol-5-yl)ethyl)oxazoline-4-one]",45.7
9,"O=C1COC(c2cn(-c3ccc(Br)cc3)nc2-c2ccc(F)cc2)N1CCc1cc2nc[nH]c2cc1F (centres unmarked) [example 7, 2-(1-(4-bromophenyl)-3-(4-fluorophenyl)1H-pyrazol-4-yl)-3-(2-(5-fluoro-1H-benzo[d]imidazol-6-yl)ethyl)oxazoline-4-one]",67.5
10,"O=C1CO[C@H](c2cn(-c3ccc(Br)cc3)nc2-c2ccc(F)cc2)N1CCc1cc2[nH]c(=O)[nH]c2cc1F [example 8 R isomer, (R)-2-(1-(4-bromophenyl)-3-(4-fluorophenyl)1H-pyrazol-4-yl)-3-(2-(6-fluoro-2-carbonyl-2,3-dihydro-1H-benzo[d]imidazol-5-yl)ethyl)oxazoline-4-one]",15.5
11,"O=C1CO[C@@H](c2cn(-c3ccc(Br)cc3)nc2-c2ccc(F)cc2)N1CCc1cc2[nH]c(=O)[nH]c2cc1F [example 8 S isomer, (S)-2-(1-(4-bromophenyl)-3-(4-fluorophenyl)1H-pyrazol-4-yl)-3-(2-(6-fluoro-2-carbonyl-2,3-dihydro-1H-benzo[d]imidazol-5-yl)ethyl)oxazoline-4-one]",> 1000
12,"O=C1COC(c2cn(-c3ccc(Br)cc3)nc2-c2ccc(F)cc2)N1CCc1cc2nn[nH]c2cc1F (centres unmarked) [example 9, 3-(2-(5-fluoro-1H-benzo[d][1,2,3]triazol-6-yl)ethyl)-2-(1-(4-bromophenyl)-3-(4-fluorophenyl)-1H-pyrazol-4-yl)oxazoline-4-one]",234
13,"O=C1COC(c2cn(-c3ccc(Br)cc3)nc2-c2ccc(F)cc2)N1CCc1c(F)cc2[nH]cnc2c1F (centres unmarked) [example 10, 2-(1-(4-bromophenyl)-3-(4-fluorophenyl)1H-pyrazol-4-yl)-3-(2-(5,7-difluoro-1H-benzo[d]imidazol-6-yl)ethyl)oxazoline-4-one]",134
14,"O=C1COC(c2cn(-c3ccc(Br)cc3)nc2-c2ccc(F)cc2)N1CCc1c(F)cc2[nH]c(=O)[nH]c2c1F (centres unmarked) [example 11, 2-(1-(4-bromophenyl)-3-(4-fluorophenyl)1H-pyrazol-4-yl)-3-(2-(4,6-difluoro-2-carbonyl-2,3-dihydro-1H-benzo[d]imidazol-5-yl)ethyl)oxazoline-4-one]",101
15,"O=C1COC(c2cn(-c3ccc(Br)cc3)nc2-c2ccc(F)cc2)N1CCc1c(F)cc2[nH]nnc2c1F (centres unmarked) [example 12, 2-(1-(4-bromophcnyl)-3-(4-fluorophenyl)-1H-pyrazol-4-yl)-3-(2-(5,7-difluoro-1H hydrogen-benzor[d][1,2,3]triazol-6-yl)ethyl)oxazoline-4-one]",223
16,O=C1Cc2cc(CCN3C(=O)CO[C@@H]3c3cn(-c4ccc(Br)cc4)nc3-c3ccc(F)cc3)ccc2N1 [example 13 R isomer],14.4
17,O=C1Cc2cc(CCN3C(=O)CO[C@H]3c3cn(-c4ccc(Br)cc4)nc3-c3ccc(F)cc3)ccc2N1 [example 13 S isomer],> 1000
18,O=C1COC(c2cn(-c3ccc(Br)cc3)nc2-c2ccc(F)cc2)N1CCc1ccc2c(c1)C(F)(F)C(=O)N2 (centres unmarked) [example 14],> 1000
19,"O=C1CO[C@H](c2cn(-c3ccc(F)cc3)nc2-c2ccc(F)cc2)N1CCc1ccc2[nH]c(=O)[nH]c2c1 [example 15 R isomer, (R)-3-(2-(2-oxo-2,3-dihydro-1H-benzo[d]imidazol-5-yl)ethyl)-2-(1-(4-fluorophenyl)-3-(4-fluorophenyl)-1H-pyrazol-4-yl)-oxazolidin-4-one]",44.5
20,"O=C1CO[C@@H](c2cn(-c3ccc(F)cc3)nc2-c2ccc(F)cc2)N1CCc1ccc2[nH]c(=O)[nH]c2c1 [example 15 S isomer, (S)-3-(2-(2-oxo-2,3-dihydro-1H-benzo[d]imidazol-5-yl)ethyl)-2-(1-(4-fluorophenyl)-3-(4-fluorophenyl)-1H-pyrazol-4-yl)-oxazolidin-4-one]",> 1000
21,"O=C1COC(c2cn(-c3ccc(Br)cc3)nc2-c2ccc(F)cc2)N1CCc1ccc2[nH]c(=O)oc2c1 (centres unmarked) [example 16, 6-(2-{2-[1-(4-bromo-phenyl)-3-(4-fluoro-phenyl)-1-hydro-pyrazol-4-yl]-4-carbonyl-oxazoline-3-yl}-ethyl)-3-hydro-2-carbonyl-benzoxazole]",80.3
22,O=C1COC(c2cn(-c3ccc(Br)cc3)nc2-c2ccc(F)cc2)N1CCc1ccc2oc(=O)[nH]c2c1 (centres unmarked) [example 17],150
23,"O=C1COC(c2cn(-c3ccc(Br)cc3)nc2-c2ccc(F)cc2)N1CCc1ccc2[nH]c(=O)sc2c1 (centres unmarked) [example 18, 2-(1-(4-bromophenyl)-3-(4-fluorophenyl)-1H-pyrazol-4-yl)-3-(2-(2-carbonyl-2,3-dihydrobenzo[d]thiazol-6-yl)ethyl)-4-carbonyl-oxazoline]",60.4
24,"O=C1COC(c2cn(-c3ccc(Br)cc3)nc2-c2ccc(F)cc2)N1CCc1ccc2sc(=O)[nH]c2c1 (centres unmarked) [example 19, 2-(1-(4-bromophenyl)-3-(4-fluorophenyl)-1H-pyrazol-4-yl)-3-(2-(2-oxo-2,3-dihydrobenzo[d]thiazol-5-yl)ethyl)oxazoline-4-one]",162
25,"O=C1COC(c2cn(-c3ccc(Br)cc3)nc2-c2ccsc2)N1CCc1ccc2[nH]c(=O)[nH]c2c1 (centres unmarked) [example 20, 2-(1-(4-bromophenyl)-3-(thiophene-3-yl)-1H-pyrazol-4-yl)-3-(2-(2-oxo-2,3-dihydro-1H-benzo[d]imidazol-5-yl)ethyl)oxazolidin-4-one]",20.9
26,"O=C1CO[C@H](c2cn(-c3ccc(Br)cc3)nc2-c2ccoc2)N1CCc1ccc2[nH]c(=O)[nH]c2c1 [example 21 R isomer, (R)-2-(1-(4-bromophenyl)-3-(furan-3-yl)-1H-pyrazol-4-yl)-3-(2-(2-oxo-2,3-dihydro-1H-benzo[d]imidazol-5-yl)ethyl)oxazolidin-4-one]",11
27,"O=C1CO[C@@H](c2cn(-c3ccc(Br)cc3)nc2-c2ccoc2)N1CCc1ccc2[nH]c(=O)[nH]c2c1 [example 21 S isomer, (S)-2-(1-(4-bromophenyl)-3-(furan-3-yl)-1H-pyrazol-4-yl)-3-(2-(2-oxo-2,3-dihydro-1H-benzo[d]imidazol-5-yl)ethyl)oxazolidin-4-one]",> 1000
28,"O=C1COC(c2cn(-c3ccc(Br)cc3)nc2-c2ccco2)N1CCc1ccc2[nH]c(=O)[nH]c2c1 (centres unmarked) [example 22, 2-(1-(4-bromophenyl)-3-(furan-2-yl)-1H-pyrazol-4-yl)-3-(2-(2-oxo-2,3-dihydro-1H-benzo[d]imidazol-5-yl)ethyl)oxazolidin-4-one]",85.3
29,"COC(=O)Nc1nc2cc(CCN3C(=O)COC3c3cn(-c4ccc(Br)cc4)nc3-c3ccc(F)cc3)ccc2[nH]1 (centres unmarked) [example 23, Methyl (5-(2-(2-(I -(4-bromophenyl)-3-(4-fluorophenyl)-1H-pyrazol-4-yl)oxazoline-4-one-3-yl)ethyl)-1H-benzo[d]imidazol-2-yl)carbamate]",127
